Data published in patent US8173133B2, “Acyl pseudodipeptides which carry a functionalized auxiliary arm” (OM Pharma, priority 1999, dated 2012).
Values joined by “and” are separate entries in the source; they are usually repeats but may differ in a detail not shown here. Equal entries are not always repeated.

Experiments:
MxA protein = MxA protein induction in dendritic cells (Western blot); assay type: cell-based, human; conditions: 1 μg/ml; after 24 hr and 48 hours; FIGS. 77, 78
Procedure: The ability of products of the invention to induce production of antiviral MxA protein by predendritic cells has been assessed. MxA production by cells was measured after an SDS-PAGE electrophoretic separation by a Western Blot assay
Extraction and analysis of protein was conducted as follows: cells were harvested, then washed 3 times with PBS (phosphate buffered saline) and lyzed with a 100 Mm Tris-HCl buffer, 150 mM NaCl, 5 mM EDTA, 1% Triton-100 containing 1 mM PMSF (phenylmethylsulphonyl fluoride) and 1 μ/ml of pepstatin as protease inhibitors. Lysis was carried out at a density of 10^6 cells for 100 μl of (5×) buffer containing 60 mM Tris-HCl (pH 6.8), 10% glycerol, 2% SDS, 14.4 mM 2-mercaptoethanol and 0.1% bromophenol). Samples were heated up to 95° C. for 5 min. in sealed Eppendorf tubes. Electrophoresis was performed on a 10 cm×10 cm 12% acrylamide minigel by running a sample having the same number of cells. Migration was effected with the following buffer: 25 mM Tris, 192 mM glycine, 0.1% SDS, pH 8.3. […]
Non specific bonding sites on the membrane were blocked with 5% skimmed milk in TBS (10 mM Tris-HCl, 150 Mm NaCl, pH 7.4) and allowing to stand for 1 hour at room temperature. […] In this system, HRP catalyzes a luminol-mediated chemiluminescent reaction which can be detected on a photographic film. […]

Leishmania LmCPb antigen = test: Leishmania LmCPb immunization: IL-4 and γ IFN in lymph node cell supernatant (ELISA); assay type: in vivo, CBA mice; conditions: lymph node cell cultures challenged with the parasite antigen
Procedure: CBA mice were administered through the tail a single subcutaneous injection (100 μl) of Leishmania parasite LmCPb antigen (3 μg per mouse)±adjuvant. […] Eleven days after injection, inguinal and periaortic lymph node cells (2 groups of 3 mice each) were cultured in triplicate in presence of purified LmCPb antigen or whole extract of the parasite (amastigote). At day 4, a supernatant sample is withdrawn and stored at −20° C. for IL-4 and γ IFN assay. Finally, tritiated thymidine (^3H-TdR) is added to the cultures to measure the proliferation reaction.
Cytokine assay is carried out by a sandwich ELISA assay (OptEIA®) kits for γ IFN and IL-4, BD, PharMingen, Basel, Switzerland) and the proliferation response is determined by measuring thymidine take-up (^3H-TdR). ^3H-TdR take-up given in cpm as the arithmetic mean value±standard deviation ([…] of 3 mice each) and IL-4 concentration given in pg/ml are individually reported for each pool of 3 mice as the arithmetic mean of two measurements (cytokine assay).
An LmCPb stock solution is prepared at a concentration of 150 μg/ml in PBS
Adjuvants: The stock solution of OM-294-MP-AC is prepared at a concentration of 0.9 mg/ml in water for injection, with addition of 0.1% triethanolamine.
Antigen-adjuvant mixture: Adjuvant preparation (4 volumes), which had been adjusted to an adequate final concentration in sterile PBS, is mixed just prior to injection with the antigen stock solution (1 volume).

[1] = pyrogenicity in the rabbit model; assay type: in vivo, New Zealand white rabbits; conditions: for response in ° C. average (individual values): 3 rabbits
Procedure: 15 New Zealand white rabbits are divided into the following groups: • Group 1: 1.0 mg/kg • Group 2: 0.1 mg/kg • Group 3: 0.01 mg/kg • Group 4: 0.001 mg/kg • Group 5: water for injection
On the day of testing, rabbits are tightly held and weighed in boxes designed for this purpose. Temperature probes are inserted in the rectum are
1 hour after probe insertion, temperatures (preinjection) are recorded for 90 minutes and the mean value is calculated.
Each rabbit is then administered an i.v. injection of product or control (sterile water in 0.9% NaCl) via the marginal (lateral) ear vein. Temperature is measured at 30 minute intervals for 3 hours. Difference between the preinjection average temperature and maximum temperature is calculated and reported.
If the result obtained lies in-between, the test is repeated with 3 more rabbits.

SMILES: CCCCCCCCCCCC(=O)O[C@H](CCCCCCCCCCC)CC(=O)NC(CCOP(=O)(O)O)C(=O)NCCCC(COC(=O)CCCCC(O)CO)NC(=O)C[C@H](O)CCCCCCCCCCC (stereo partly drawn) [OM-197-FV6, 3-[(R)-dodecanoyloxytetradecanoylamino]-4oxo-5-aza-9-[(R)-3-hydroxytetradecanoylamino]-decan-1,10-diol 1-dihydrogenphate 10-(6,7-dihydroxyheptanoate)]
- production of MxA protein (MxA protein): significant rise

SMILES: CCCCCCCCCCCC(=O)O[C@H](CCCCCCCCCCC)CC(=O)N[C@H](CC(=O)O)C(=O)NCCC[C@H](COC(=O)CCCCCN)NC(=O)C[C@H](O)CCCCCCCCCCC [OM-197-MC-AC, N—[(R)-3-dodecanoyloxytetradecanoyl]-D-aspartic acid, α-N-{(4R)-5-(6-aminohexanoyloxy)-4-[(R)-3-hydroxytetradecanoylamino]pentyl}amide]
- γ IFN production (Leishmania LmCPb antigen): < 100 pg/mL

SMILES: CCCCCCCCCCCC(=O)O[C@H](CCCCCCCCCCC)CC(=O)N[C@H](CC(=O)O)C(=O)NCCC[C@H](COP(=O)(O)O)NC(=O)C[C@H](O)CCCCCCCCCCC [OM-197-MC-MP, N—[(R)-3-dodecanoyloxytetradecanoyl]-D-aspartic acid, α-N-{(4R)-5-dihydroxyphosphoryloxy-4-[(R)-3-hydroxytetradecanoyl-amino]pentyl}amide]
- pyrogenicity Results ([1]; 0.001 mg/Kg i.v.): non pyrogenic
- response in ° C. average (individual values) ([1]; 0.001 mg/Kg i.v.): 0.35 (0.10, 0.05, 0.20) ° C. and 0.25 (0.00, 0.10, 0.15) ° C.
- pyrogenicity Results ([1]; 0.01 mg/Kg i.v.): non pyrogenic
- response in ° C. average (individual values) ([1]; 0.01 mg/Kg i.v.): 0.65 (0.00, 0.45, 0.20) ° C. and 0.35 (0.20, 0.15, 0.00) ° C.
- pyrogenicity Results ([1]; 0.1 mg/Kg i.v.): pyrogenic
- response in ° C. average (individual values) ([1]; 0.1 mg/Kg i.v.): 2.00 (1.45, 0.05, 0.50) ° C. and 2.85 (1.10, 1.20, 0.55) ° C.
- pyrogenicity Results ([1]; 1 mg/Kg i.v.): pyrogenic
- response in ° C. average (individual values) ([1]; 1 mg/Kg i.v.): 3.40 (1.50, 0.60, 1.30) ° C. and 3.25 (1.25, 1.45, 0.55) ° C.
